# Experiments:
# [1] = test system: IL-8 mRNA expression in NHBE cells; experiment: IL-8 mRNA expression by real-time quantitative PCR; type: cell-based, human; details: 4 h
# Protocol: For the relative quantification of IL-8 mRNA expression, the expression of glyceraldehyde-3-phosphate dehydrogenase (GAPDH) was served as an internal control. EvaGreen was used as a DNA intercalator dye to monitor amplified DNA quantification, and real-time quantitative PCR curves were analyzed by the CFX Manager™ software (Bio-Rad) in order to obtain threshold cycle (Ct) values for each sample. Quantification was based on a standard curve. Appropriate IL-8 and GADPH forward and reverse primers were used.
# [2] = test system: IL-8 secretion from NHBE cells; experiment: LPS-induced IL-8 secretion from NHBE cells in culture (ELISA); type: cell-based, human
# Protocol: NHBE cells (Lonza Walkersville, Walkersville, Md.) were plated at 3,500 cells/cm^2 in culture dishes in bronchial epithelial cell growth medium (BEGM) supplemented with the SingleQuot® kit (Lonza) without antibiotics and cultured at 37° C. in a 5% CO2 incubator. We used endotoxin-free media (<0.005 endotoxin units/ml) and second-passage cells for all experiments. Cells were grown to confluence for 6 days. Cultures without antibiotics were then transferred to 6-well or 35 mm dishes coated with type 1 rat-tail collagen and seeded at 3,500 cells/cm^2. The medium was changed every 24 h. To avoid influence of growth factors on cell signaling and IL-8 secretion, cells were cultured in supplement-free bronchial epithelial cell basal medium (BEBM) for 24 h before stimulation. We evaluated cell response at the time of cell confluence rather than normalize to the relative number of cells because cell maturation could affect cell signaling and cytokine secretion, and at confluence, all cells are at similar growth stages. Culture supernatants were collected and centrifuged for 5 min at 200×g and stored at −20° C. until assayed. IL-8 was measured by ELISA (Beckman Coulter, Inc., Brea, Calif.) according to the manufacturer's instructions. Concentrations in each sample were obtained by interpolation from standard curves, and calculated as the mean of the results at the sample dilution. […] We chose to assess cell response at the time of cell confluence rather than normalize to the relative number of cells, because cell maturation could potentially affect cell signaling and cytokine secretion, and at confluence, all cells are at similar growth stages.
# [3] = test system: ERK1/2 phosphorylation in NHBE cells; experiment: LPS-induced phosphorylation of MAPKs (Western blotting); type: cell-based, human
# Protocol: Membranes were stripped with a stripping buffer (100 mM 2-mercaptoethanol, 2% SDS, and 62.5 mM Tris/HCl pH 6.7) for 30 min at 30° C. The blots were reprobed with anti-p44/42 MAPK, anti-p38 MAPK, or anti-SAPK/JNK antibody (diluted 1:1000 for each), followed by anti-rabbit-IgG HRP secondary antibody (diluted 1:2000). To correct small differences in loading for NF-κB p65, blots were stripped, and reprobed with anti-human β-actin antibody (diluted 1:5000), followed by anti-mouse IgG HRP secondary antibody (diluted 1:5000). Western blot images were scanned and analyzed on NIH Image J software (18).
# [4] = test system: IL-8 release from NHEK; details: cited from earlier work
# [5] = test system: LPS-inflamed ferret trachea; experiment: Mucociliary transport (MCT) on excised tracheal segments; type: in vivo; details: 5 days
# Protocol: (§1) Twenty adult male ferrets (weight, 1.3 to 2.0 kg) were obtained from Marshall Farms (Rose, N.Y.). Ferrets were anesthetized with 40 mg/kg ketamine and 5 mg/kg xylazine, and exposed to endotoxin for 30 min once daily for 5 days by incubating with a 3.0 uncuffed endotracheal tube (ETT) coated with 10 mg of LPS mixed in 300 μl water soluble K-Y jelly (Johnson & Johnson, New Brunswick, N.J.) (Abanses et al., 2009). As controls, K-Y jelly without LPS was used in two ferrets.
# This is equivalent to the oral dose used to treat persons with skin disease. For aerosol inhalation, ferrets were shallowly intubated with ETT, which was placed 1 cm below the larynx. […] Ferrets (body weight 1.5 kg) have 0.3-0.4 ml total lung lining fluid volume. Therefore, the dose delivered to the lung, is estimated to be 0.1 to 1.0 μg in this system given reported nebulization efficiency. […]
# A tracheal segment was placed on a piece of gauze saturated with Ringer's solution in a chamber in which the relative humidity was maintained at 95 to 100% and the temperature was maintained at 22° C. to 24° C. MCT was measured by focusing a tracheal segment under a microscope with gradicule (grid line) eyepiece and recording the transport time of the leading edge of very fine shavings of plastic that were placed on the tracheal epithelium. […]
# [6] = test system: LPS-inflamed ferret trachea; experiment: Intraepithelial neutrophil accumulation in LPS-inflamed ferret trachea; type: in vivo; details: 5 days
# [7] = Ferret activity, appetite and weight after tracheal LPS with and without dapsone; type: in vivo; details: LPS 5 days, 5-day dapsone treatment (oral or nebulized) vs vehicle
# Protocol: as §1
# This is equivalent to the oral dose used to treat persons with skin disease. For aerosol inhalation, ferrets were shallowly intubated with ETT, which was placed 1 cm below the larynx. […] Ferrets (body weight 1.5 kg) have 0.3-0.4 ml total lung lining fluid volume. Therefore, the dose delivered to the lung, is estimated to be 0.1 to 1.0 μg in this system given reported nebulization efficiency.
# [8] = test system: apical and basolateral IL-8 secretion from ALI-conditioned NHBE cells; experiment: IL-8 secretion from NHBE cells cultured under air-liquid interface (ALI) condition; type: cell-based, human; details: dapsone 1 μg/ml in basolateral medium, LPS 10 μg/ml 24 h
# Protocol: For NHBE cell differentiation, cells were plated at 2.0×10^5 cells/cm^2 onto polycarbonate inserts of 6.5-mm diameter, 0.4-μm pore size and 10-μm thickness (Costar Transwell Clear, Cambridge, Mass., USA) coated with type 1 rat-tail collagen, and cultured with serum-free DMEM/F12 medium containing ITS-A (1.0%; Invitrogen Co., Carlsbad, Calif.), epidermal growth factor (EGF) (recombinant human EGF, 0.5 ng/ml; Invitrogen Co.), triiodothyronine (10 ng/ml; […] Sigma-Aldrich), bovine serum albumin (2.0 μg/ml; Sigma-Aldrich) and bovine pituitary extract (30 μg/ml; Invitrogen Co.). After achieving confluence, the apical medium was removed, and cells were cultured with an air-liquid-interface (ALI) method. The culture medium was changed every 48 h, and cells were maintained at 37° C. in a 5% CO2, for 10-14 days. Culture supernatants were collected and centrifuged for 5 min at 200×g and stored at −20° C. until assayed. IL-8 was measured by ELISA (Beckman Coulter, Inc., Brea, Calif.) according to the manufacturer's instructions. Concentrations in each sample were obtained by interpolation from standard curves, and calculated as the mean of the results at the sample dilution. […] NHBE cells were stimulated with LPS from the apical (AP-LPS) or basolateral side (BL-LPS) for 24 h, and IL-8 secretion levels in both chambers were measured. […]
# [9] = test system: NF-κB p65 phosphorylation in NHBE cells; experiment: LPS-induced phosphorylation of NF-κB p65 (Western blotting); type: cell-based, human
# Protocol: After stimulation, the plated cells were washed with cold PBS, and then lysed on ice in a modified radio immunoprecipitation buffer (1% Nonidet P-40, 1% sodium deoxycholate, 150 mM NaCl, 10 mM Tris pH 7.5, 5 mM sodium pyrophosphate, 1 mM NaVO4, 5 mM NaF, 1 μg/ml aprotinin, 1 μg/ml leupeptin, and 0.1 mM PMSF) for 15 min and then scraped from the dishes. DNA was sheared by passing the lysate though a 27-gauge needle, and insoluble material was removed by centrifugation at 20,000 g for 15 min at 4° C. The protein concentration of the resulting supernatant was quantified by the DC protein assay (Bio-Rad, Hercules, Calif.). Equal amounts of protein extracts were loaded on a 12% SDS-PAGE mini gel and transferred to a nitrocellulose membrane (Bio-Rad). Membranes were blocked with blocking buffer (150 mM NaCl, 20 mM Tris, and 0.1% Tween 20, pH 7.6) containing 5% nonfat dry milk at 4° C. overnight. Subsequently, membranes were rinsed and incubated with the primary antibody: phospho (p)-p44/42 MAPK (Thr202/Tyr204) (diluted 1:2000), p-p38 MAPK (Thr180/Tyr182) (diluted 1:1000), p-SAPK/JNK (Thr183/Tyr185) (diluted 1:1000), or p-NF-κB p65 rabbit polyclonal IgG (diluted 1:1000) (Cell Signaling Technology), for 2 h at room temperature. The membranes were then incubated at room temperature for 1 h with the anti-rabbit IgG HRP secondary antibody (diluted 1:2000). Subsequently, the blots membranes were developed with LumiGLO chemiluminescent substrate peroxide (Cell Signaling Technology).
# Membranes were stripped with a stripping buffer (100 mM 2-mercaptoethanol, 2% SDS, and 62.5 mM Tris/HCl pH 6.7) for 30 min at 30° C. The blots were reprobed with anti-p44/42 MAPK, anti-p38 MAPK, or anti-SAPK/JNK antibody (diluted 1:1000 for each), followed by anti-rabbit-IgG HRP secondary antibody (diluted 1:2000). […] Western blot images were scanned and analyzed on NIH Image J software (18).
# The […] phosphorylation of NF-κB p65 was measured by Western blotting. The band intensity was calculated with NIH Image J software.
# [10] = test system: IL-13 induced goblet cell hyperplasia in NHBE cells; experiment: In vitro model of IL-13 induced goblet cell hyperplasia, ALI-conditioned NHBE cells; type: cell-based, human
# From the text: Globlet cells are columnar epithelial cells whose sole function is to secrete mucin, which dissolves in water to form mucus. […] An in vitro model of goblet cell hyperplasia was developed using normal human bronchial epithelial (NHBE) cells cultured under air-liquid interface (ALI) conditions.
# [11] = in vivo; cited from earlier work
# [12] = test system: steroid-dependent asthma patients; details: orally administered dapsone; cited from earlier work
smiles,measurement,setting,value
"C[C@@H]1C[C@H]2[C@@H]3CCC4=CC(=O)C=C[C@]4(C)[C@@]3(F)[C@@H](O)C[C@]2(C)[C@@]1(O)C(=O)CO [DEX, dexamethasone]",decrease of basal IL-8 mRNA level,"[1]; DEX 0.1 μg/ml, P<0.05",~40%
"COc1cccc(-c2cc(=O)c3ccccc3o2)c1N [PD98059, 2′-amino-3′-methoxyflavone]",LPS-induced IL-8 secretion,[2]; PD98059 20 μM added 1 h before LPS,did not inhibit
same,LPS-induced ERK1/2 phosphorylation,"[3]; PD98059 20 μM added 1 h before LPS 10 μg/ml, 4 h",abolished
"Nc1ccc(S(=O)(=O)c2ccc(N)cc2)cc1 [dapsone, 4,4′-diaminodiphenyl sulfone]",basal IL-8 level,[4]; NHEK,did not depress
same,bullous pemphigoid IgG-mediated IL-8 release,[4]; dapsone in a therapeutic concentration,inhibited
same,basal IL-8 mRNA level,[1]; dapsone 1 μg/ml,did not influence
same,LPS-induced IL-8 mRNA over expression,"[1]; dapsone 1 and 10 μg/ml, LPS 10 μg/ml, P<0.05 for each",significantly inhibited
same,basal IL-8 secretion,"[2]; dapsone 1 μg/ml, 48 and 72 h, no LPS",did not affect
same,LPS-induced IL-8 secretion over time,"[2]; dapsone 1 μg/ml, LPS 10 μg/ml, up to 72 h",significantly and persistently decreased
same,LPS-induced IL-8 secretion,"[2]; dapsone 0.3, 1 or 10 μg/ml, LPS 10 μg/ml, 24 h, P<0.01 for each",suppressed
same,MCT velocity,"[5]; aerosol dapsone 0.5 mg/ml, 15 min once daily, P=0.007 vs LPS control, normal approximately 7 mm/min",6 mm/min
same,MCT,"[5]; oral dapsone 2 mg/kg daily, P=0.09, LPS alone 1-3 mm/minute",the increase was not significant
same,LPS-induced ERK1/2 phosphorylation at 1 h,"[3]; dapsone 1 μg/ml, LPS 10 μg/ml, 1 h, P<0.05",inhibited
same,LPS-induced ERK1/2 phosphorylation after 4 h,"[3]; dapsone 1 μg/ml, LPS 10 μg/ml, after 4 h",this effect disappeared
same,neutrophil accumulation in tracheal epithelium,"[6]; nebulized dapsone 0.5 mg/ml, 15 min once daily, P<0.05",significantly inhibited
same,neutrophil recruitment in tracheal epithelium,"[6]; oral dapsone 2 mg/kg daily, P=0.3",tended to inhibit
same,ferret activity or appetite,[7],no measurable effect
same,ferret weight over 9 days,[7],no difference
same,basolateral IL-8 increased by AP- or BL-LPS,"[8]; P<0.001 AP-LPS, P<0.01 BL-LPS",inhibited
same,apical IL-8 level increased by AP-LPS,[8]; P<0.05,inhibited
same,NF-κB p65 activation,[9]; dapsone 0.3 μg/mL,did not significantly inhibit
same,LPS-induced NF-κB p65 phosphorylation,"[9]; dapsone 1 μg/ml, LPS 10 μg/ml, 15 min to 2 h, to the control level",significantly inhibited
same,dose dependence of inhibition of NF-κB p65 phosphorylation,"[9]; dapsone 0.3, 1 and 10 μg/ml (P=0.16 for 0.3; P<0.01 for 1 and 10 μg/ml)",dose-dependent
same,growth of ALI-conditioned NHBE cells,"[10]; dapsone 3 μg/ml, no IL-13",no measurable effect
same,amount and extent of IL-13 induced goblet cell hyperplasia,"[10]; dapsone 10 μg/ml, vs control cell cultures",decreased
same,therapeutic serum levels,[11],0.5 to 5 µg/mL
same,patients able to substantially reduce or stop taking steroids,[12],9 out of 10
